Target: MDM2 (Homo sapiens, UniProt Q00987)
Experiment: Fluorescence polarization
Conditions: FP assay

Compound	activity toward MDM2 (in words)
O=C(O)c1[nH]c2cc(Cl)ccc2c1C1C(=O)NCCCCCCCCCCCCCC(=O)N1Cc1ccc(Cl)cc1 (stereo not drawn) [1f]	only slightly or not active at all
CCOC(=O)c1[nH]c2cc(Cl)ccc2c1C1C(=O)NCCCCCCCCCCCCCCCCCCCC(=O)N1Cc1ccc(OCc2ccc(Cl)c(Cl)c2)cc1 (stereo not drawn) [2k]	orders of magnitude less reactive or inactive
O=C(O)c1[nH]c2cc(Cl)ccc2c1C1C(=O)NCCCCCCCCCCCCCC(=O)N1Cc1ccc(F)cc1 (stereo not drawn) [1d]	only slightly or not active at all
